Data: patent US11498899B2, “Nitrone herbicides” (FMC Corporation, priority 2016, dated 2022)

Key:
[1] = tested on: ducksalad (Heteranthera limosa); test: Test B flooded paddy test, visual rating 0-100; conditions: Flood, 250 g ai/ha, applied to paddy water, rated after 13 to 15 days
[2] = tested on: ragweed (common ragweed, Ambrosia elatior); test: Test A preemergence, visual injury rating 0-100; type: in vivo
[3] = tested on: kochia (Kochia scoparia); test: Test A preemergence, visual injury rating 0-100; type: in vivo
[4] = tested on: pigweed (Amaranthus retroflexus); test: Test A preemergence, visual injury rating 0-100; type: in vivo
[5] = tested on: foxtail, green (green foxtail, Setaria viridis); test: Test A preemergence, visual injury rating 0-100; type: in vivo
[6] = tested on: ryegrass, Italian (Italian ryegrass, Lolium multiflorum); test: Test A preemergence, visual injury rating 0-100; type: in vivo
[7] = tested on: ragweed (common ragweed, Ambrosia elatior); test: Test A postemergence, visual injury rating 0-100; type: in vivo; conditions: 0 to 100 scale
[8] = tested on: kochia (Kochia scoparia); test: Test A postemergence, visual injury rating 0-100; type: in vivo; conditions: 0 to 100 scale
[9] = tested on: blackgrass (Alopecurus myosuroides); test: Test A postemergence, visual injury rating 0-100; type: in vivo; conditions: 0 to 100 scale
[10] = tested on: pigweed (Amaranthus retroflexus); test: Test A postemergence, visual injury rating 0-100; type: in vivo; conditions: 0 to 100 scale
[11] = tested on: galium (catchweed bedstraw, Galium aparine); test: Test A postemergence, visual injury rating 0-100; type: in vivo; conditions: 0 to 100 scale
[12] = tested on: barnyardgrass (Echinochloa crus-galli); test: Test A postemergence, visual injury rating 0-100; type: in vivo; conditions: 0 to 100 scale
[13] = tested on: foxtail, green (green foxtail, Setaria viridis); test: Test A postemergence, visual injury rating 0-100; type: in vivo; conditions: 0 to 100 scale
[14] = tested on: corn (Zea mays); test: Test A postemergence, visual injury rating 0-100; type: in vivo; conditions: 0 to 100 scale
[15] = tested on: wheat (Triticum aestivum); test: Test A postemergence, visual injury rating 0-100; type: in vivo; conditions: 0 to 100 scale
[16] = tested on: ryegrass, Italian (Italian ryegrass, Lolium multiflorum); test: Test A postemergence, visual injury rating 0-100; type: in vivo; conditions: 0 to 100 scale
[17] = tested on: barnyardgrass (Echinochloa crus-galli); test: Test B flooded paddy test, visual rating 0-100; conditions: Flood, 250 g ai/ha, applied to paddy water, rated after 13 to 15 days
[18] = tested on: rice (Oryza sativa); test: Test B flooded paddy test, visual rating 0-100 (0 no effect, 100 complete control); conditions: Flood, 250 g ai/ha, applied to paddy water, rated after 13 to 15 days
[19] = tested on: barnyardgrass (Echinochloa crus-galli); test: Test A preemergence, visual injury rating 0-100 (0 no effect, 100 complete control); type: in vivo
[20] = 31 g ai/ha, 0 to 100 scale (0 no effect, 100 complete control), approx. 10 days

Compound: CC1=[N+]([O-])[C@H](C(=O)Nc2cccc(F)c2F)[C@@H](c2ccc(C(F)(F)F)cc2)C1 [Compound 30, (2S,3R)—N-(2,3-difluorophenyl)-3,4-dihydro-5-methyl-3-[4-(trifluoromethyl)phenyl]-2H-pyrrole-2-carboxamide 1-oxide]
- melting point: 113 to 117 °C
- Ducksalad plant response rating (0 to 100 scale) [1]: 100
- Ragweed plant response rating [2, 20]: 30
- Ragweed plant response rating (0 to 100 scale) ([2]; 125 g ai/ha): 90
- Kochia plant response rating [3, 20]: 0
- Kochia plant response rating (0 to 100 scale) ([3]; 125 g ai/ha): 80
- Pigweed plant response rating [4, 20]: 0
- Pigweed plant response rating (0 to 100 scale) ([4]; 125 g ai/ha): 90
- Foxtail, Green plant response rating [5, 20]: 100
- Foxtail, Green plant response rating (0 to 100 scale) ([5]; 125 g ai/ha): 100
- Ryegrass, Italian plant response rating [6, 20]: 0
- Ryegrass, Italian plant response rating (0 to 100 scale) ([6]; 125 g ai/ha): 90
- Ragweed plant response rating ([7]; 31 g ai/ha): 0
- Ragweed plant response rating ([7]; 125 g ai/ha): 40
- Kochia plant response rating ([8]; 31 g ai/ha): 0
- Kochia plant response rating ([8]; 125 g ai/ha): 0
- Blackgrass plant response rating ([9]; 31 g ai/ha): 30
- Blackgrass plant response rating ([9]; 125 g ai/ha): 60
- Pigweed plant response rating ([10]; 31 g ai/ha): 20
- Pigweed plant response rating ([10]; 125 g ai/ha): 30
- Galium plant response rating ([11]; 31 g ai/ha): 50
- Galium plant response rating ([11]; 125 g ai/ha): 50
- Barnyardgrass plant response rating ([12]; 31 g ai/ha): 30
- Barnyardgrass plant response rating ([12]; 125 g ai/ha): 70
- Foxtail, Green plant response rating ([13]; 31 g ai/ha): 30
- Foxtail, Green plant response rating ([13]; 125 g ai/ha): 80
- Corn plant response rating ([14]; 31 g ai/ha): 0
- Corn plant response rating ([14]; 125 g ai/ha): 70
- Wheat plant response rating ([15]; 31 g ai/ha): 40
- Wheat plant response rating ([15]; 125 g ai/ha): 50
- Ryegrass, Italian plant response rating ([16]; 31 g ai/ha): 20
- Ryegrass, Italian plant response rating ([16]; 125 g ai/ha): 50
- Barnyardgrass plant response rating (0 to 100 scale) [17]: 85
- Rice plant response rating (0 to 100 scale) [18]: 50
- Barnyardgrass plant response rating [19, 20]: 100
- Barnyardgrass plant response rating (0 to 100 scale) ([19]; 125 g ai/ha): 100
